These molecules were tested against T1, Na+-dependent bile acid transportation system (Oryctolagus cuniculus, UniProt Q28727) (assay: Inhibition of [3H]-taurocholate uptake in brush border membrane vesicles from the ileum of rabbits). Conditions: Na+-dependent [3H]-taurocholate uptake (difference Na-T-P minus K-T-P), 50 μM taurocholate, rabbit ileum brush border membrane vesicles; drawing 7.
T1 construct: Brush border membrane vesicles were prepared from the intestinal cells of the small intestine; from tissue; host or cells: terminal 7/10 of the small intestine (ileum) of male New Zealand rabbits, mucosal brush border membrane vesicles
T1 sequence (Q28727 1-347): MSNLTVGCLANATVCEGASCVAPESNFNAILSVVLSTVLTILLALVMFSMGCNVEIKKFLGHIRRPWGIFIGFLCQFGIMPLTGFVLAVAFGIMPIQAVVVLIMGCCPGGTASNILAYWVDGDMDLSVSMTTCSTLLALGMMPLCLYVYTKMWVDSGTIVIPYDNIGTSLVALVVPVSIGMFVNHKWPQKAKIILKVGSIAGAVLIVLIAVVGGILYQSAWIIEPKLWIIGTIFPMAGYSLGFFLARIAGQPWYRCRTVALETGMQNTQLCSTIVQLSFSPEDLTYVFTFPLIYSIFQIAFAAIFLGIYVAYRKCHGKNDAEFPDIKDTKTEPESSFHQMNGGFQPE
Format: biochemical
Procedure: The compounds according to the invention were tested biologically by determination of the inhibition of [^3 H]taurocholate uptake in the brush border membrane vesicles from the ileum of rabbits. The inhibition test was carried out as follows:
1. Preparation of brush border membrane vesicles from the ileum of rabbits
Brush border membrane vesicles were prepared from the intestinal cells of the small intestine by the so-called Mg^2+ precipitation method. Male New Zealand rabbits (2 to 2.5 kg body weight) were sacrificed by intravenous injection of 0.5 ml of an aqueous solution of 2.5 mg of tetracaine HCl, 100 T 61^R and 25 mg of mebezonium iodide. The small intestine was removed and rinsed with ice-cold physiological saline solution. The terminal 7/10 of the small intestine (measured in the oral-rectal direction, i.e. the terminal ileum, which contains the active Na^+ -dependent bile acid transportation system) was used for preparation of the brush border membrane vesicle. The intestines were frozen in plastic bags under nitrogen at -80° C. For preparation of the membrane vesicles, the frozen intestines were thawed at 30° C. in a water bath. The mucosa was scraped off and suspended in 60 ml of ice-cold 12 mM Tris/HCl buffer (pH 7.1)/300 mM mannitol, 5 mM EGTA/10 mg/1 of phenylmethylsulfonyl fluoride/1 mg/1 of trypsin inhibitor from soybeans (32 U/mg)/0.5 mg/1 of trypsin inhibitor from bovine lung (193 U/mg)/5 mg/1 of bacitracin. After dilution to 300 ml with ice-cold distilled water, the mixture was homogenized with an Ultraturrax (18-rod, IKA Werk Staufen, FRG) for 3 minutes at 75% of the maximum output, while cooling with ice. After addition of 3 ml of 1M MgCl2 solution (final concentration 10 mM), the mixture was left to stand at 0° C. for exactly 1 minute. The cell membranes aggregate by addition of Mg^2+ and precipitate, with the exception of the brush border membranes. After centrifugation at 3000× g (5000 rpm, SS-34 rotor) for 15 minutes, the precipitate was discarded, and the supernatant, which contained the brush border membranes, was centrifuged at […] (15000 rpm, SS-34 rotor) for 30 minutes. The supernatant was discarded and the precipitate was rehomogenized in 60 ml of 12 mM Tris/HCl buffer (pH 7.1)/60 mM mannitol, 5 mM EGTA using a Potter Elvejhem homogenizer (Braun, Melsungen, 900 rpm, 10 strokes). After addition of 0.1 ml of 1 M MgCl2 solution and an incubation time of 15 minutes at 0° C., the mixture was centrifuged again at 3000× g for 15 minutes. The supernatant was then centrifuged again at 46000× g (15000 rpm, SS-34 rotor) for 30 minutes. The precipitate was taken up in 30 ml of 10 mM Tris/Hepes buffer (pH 7.4)/300 mM mannitol and resuspended homogeneously by 20 strokes in a Potter Elvejhem homogenizer at 1000 rpm. After centrifugation at 48000× g (20000 rpm, SS-34 rotor) for 30 minutes, the precipitate was taken up in 0.5 to 2 ml of Tris/Hepes buffer (pH 7.4)/280 mM mannitol (final concentration 20 mg/ml) and resuspended with the aid of a tuberculin syringe with a 27 gauge needle. The vesicles were either used immediately for transportation studies after preparation, or stored at -196° C. in portions of 4 mg in liquid nitrogen.
2. Inhibition of Na^+ -dependent [^3 H]-taurocholate uptake in the brush border membrane vesicles of the ileum
The uptake of substrates into the brush border membrane vesicles described above was determined by means of the so-called membrane filtration technique. 10 μl of the vesicle suspension (100 μg of protein) were pipetted as drops onto the wall of a polystyrene incubation tube (11×70 mm) which contained the incubation medium with the corresponding ligands (90 μl). […]

| Compound | quotient of the IC50Na value of taurochenodesoxycholate (TCDC) standard and the particular substance |
| --- | --- |
| C[C@H](CCC(=O)O)[C@H]1CC[C@H]2[C@@H]3[C@H](O)C[C@@H]4C[C@@H](OCCCCCCCCO)CC[C@]4(C)[C@H]3C[C@H](O)[C@]12C [Example 3] | 0.35 |
| C[C@H](CCC(=O)O)[C@H]1CC[C@H]2[C@@H]3[C@H](O)C[C@@H]4C[C@@H](OCCCCCCNC(=O)c5cccc6ccccc56)CC[C@]4(C)[C@H]3C[C@H](O)[C@]12C [Example 38] | 0.41 |
| Cc1ccc(S(=O)(=O)N(C)CCCCCCO[C@H]2CC[C@@]3(C)[C@@H](C2)C[C@@H](O)[C@@H]2[C@@H]3C[C@H](O)[C@]3(C)[C@@H]([C@H](C)CCC(=O)O)CC[C@@H]23)cc1 [Example 36] | 0.20 |
| C[C@H](CCC(=O)O)[C@H]1CC[C@H]2[C@@H]3[C@H](O)C[C@@H]4C[C@@H](OCCCCCCOP(=O)(Oc5ccccc5)Oc5ccccc5)CC[C@]4(C)[C@H]3C[C@H](O)[C@]12C [Example 18] | 0.42 |
| C[C@H](CCC(=O)O)[C@H]1CC[C@H]2[C@@H]3[C@H](O)C[C@@H]4C[C@H](CCNC(=O)c5cccc6ccccc56)CC[C@]4(C)[C@H]3C[C@H](O)[C@]12C [Example 33] | 0.35 |
| COc1ccc(Cl)cc1C(=O)NCCc1ccc(S(=O)(=O)NC(=O)NCCCCCCO[C@H]2CC[C@@]3(C)[C@@H](C2)C[C@@H](O)[C@@H]2[C@@H]3C[C@H](O)[C@]3(C)[C@@H]([C@H](C)CCC(=O)O)CC[C@@H]23)cc1 [Example 40] | 0.50 |
| C[C@H](CCC(=O)O)[C@H]1CC[C@H]2[C@@H]3[C@H](O)C[C@@H]4C[C@@H](OCCCCCCCCCO)CC[C@]4(C)[C@H]3C[C@H](O)[C@]12C [Example 4] | 0.69 |
| C[C@H](CCC(=O)O)[C@H]1CC[C@H]2[C@@H]3[C@H](O)C[C@@H]4C[C@@H](OCCCCCCNC(N)=O)CC[C@]4(C)[C@H]3C[C@H](O)[C@]12C [Example 21] | 0.33 |
| C[C@H](CCC(=O)O)[C@H]1CC[C@H]2[C@@H]3[C@H](O)C[C@@H]4C[C@@H](OCCCCCCNC(=O)[C@H](O)[C@@H](O)[C@H](O)[C@H](O)CO)CC[C@]4(C)[C@H]3C[C@H](O)[C@]12C [Example 43] | 0.73 |
| Cc1ccc(S(=O)(=O)NCCCCCCO[C@H]2CC[C@@]3(C)[C@@H](C2)C[C@@H](O)[C@@H]2[C@@H]3C[C@H](O)[C@]3(C)[C@@H]([C@H](C)CCC(=O)O)CC[C@@H]23)cc1 [Example 35] | 1.02 |

— patent US5610151A, “Monomeric bile acid derivatives, processes for their preparation and the use of these compounds as medicaments” (Hoechst Aktiengesellschaft, priority 1993, dated 1997)
